# Experimental data reported in paper PMC5063900, “A phase 1 study of the safety, tolerability, pharmacokinetics, and pharmacodynamics of TAK-063, a selective PDE10A inhibitor” (Psychopharmacology, 2016).
# Marks after values point to notes of the source that are not given here.
# Tests used:
# [1] = Plasma and urine pharmacokinetics after single oral dose under fasting conditions; format: in vivo, human; conditions: for T 1/2 / C max / T max / CL/F (oral clearance) / Vz/F (volume of distribution) / AUC(0-inf) / CL/F / Vz/F: plasma
# Procedure: Healthy Japanese and non-Japanese subjects between 18 and 55 years of age were recruited to participate in the study. Criteria for exclusion included prior treatment with any investigational compound within 30 days of the first TAK-063 dose, a positive test for drugs of abuse or nicotine, and an increased risk for suicide. Subjects were randomized into 1 of 6 dose cohorts (3, 10, 30, 100, 300, and 1000 mg), with each cohort containing 11 TAK-063 subjects (five Japanese, six non-Japanese) and three placebo subjects (one Japanese, two non-Japanese) receiving a single dose under fasting conditions. Following a washout period of 7 days, subjects in cohort 3 (100 mg) received the same dose (100 mg) but under fed conditions. Serial plasma and urine samples were collected from all subjects prior to dosing and at specific time points or intervals up to 96 h postdose. Pharmacokinetic samples were processed immediately and frozen at −20 °C as duplicate sets. Plasma concentrations of TAK-063 and its metabolite M-I were subsequently measured by validated liquid chromatography-tandem mass spectrometry with a validated range of 0.5 to 1000 ng/mL for both analytes. The PK parameters analyzed for TAK-063 and its metabolite M-I in plasma and urine included area under the plasma concentration-time curve from time 0 to infinity (AUC (0-inf)), maximum observed plasma concentration (C max), time to reach C max (T max), terminal elimination half-life (T 1/2), oral clearance (CL/F), volume of distribution (Vz/F), and renal clearance (CLr). Metabolite-to-parent ratios were estimated from C max and AUC (0-inf) data. All statistical analyses were generated using SAS Version 9.2 (SAS, Cary, NC, USA). The PK parameters were derived using non-compartmental methods with WinNonlin Enterprise Version 6.3 (Pharsight Corp., Mountain View, CA, USA). Frequency or descriptive statistics were used for summary of data. Where indicated, percent coefficient of variation was included in the summary of continuous data. All statistical tests were 2-tailed at α = 0.05 level for significance unless otherwise stated. A power model was used to evaluate dose proportionality by race for fasted subjects; in the event of no observed race effect, dose proportionality was assessed for all subjects. To evaluate the food effect, a paired t test was performed on T max and natural log-transformed C max, and AUCs. An ANCOVA model with baseline scores and race as covariates was used to assess the effects of TAK-063 on CNSVS domain scores.
# [2] = Food effect on pharmacokinetics, 100 mg fed vs fasting; format: in vivo, human
# Procedure: Healthy Japanese and non-Japanese subjects between 18 and 55 years of age were recruited to participate in the study. Criteria for exclusion included prior treatment with any investigational compound within 30 days of the first TAK-063 dose, a positive test for drugs of abuse or nicotine, and an increased risk for suicide. Subjects were randomized into 1 of 6 dose cohorts (3, 10, 30, 100, 300, and 1000 mg), with each cohort containing 11 TAK-063 subjects (five Japanese, six non-Japanese) and three placebo subjects (one Japanese, two non-Japanese) receiving a single dose under fasting conditions. […] Plasma concentrations of TAK-063 and its metabolite M-I were subsequently measured by validated liquid chromatography-tandem mass spectrometry with a validated range of 0.5 to 1000 ng/mL for both analytes. The PK parameters analyzed for TAK-063 and its metabolite M-I in plasma and urine included area under the plasma concentration-time curve from time 0 to infinity (AUC (0-inf)), maximum observed plasma concentration (C max), time to reach C max (T max), terminal elimination half-life (T 1/2), oral clearance (CL/F), volume of distribution (Vz/F), and renal clearance (CLr). […] A power model was used to evaluate dose proportionality by race for fasted subjects; in the event of no observed race effect, dose proportionality was assessed for all subjects. […]
# [3] = fasting, all subjects, TAK-063 300 mg (n = 11; TAK-063 n = 8), arithmetic mean (% CV)
# [4] = fasting, all subjects, TAK-063 1000 mg (n = 11), arithmetic mean (% CV)
# [5] = non-Japanese subjects, TAK-063 3 mg (n = 6), arithmetic mean
# [6] = non-Japanese subjects, TAK-063 3 mg (n = 6; M-I n = 5), arithmetic mean
# [7] = non-Japanese subjects, TAK-063 10 mg (n = 6), arithmetic mean
# [8] = non-Japanese subjects, TAK-063 30 mg (n = 6), arithmetic mean
# [9] = non-Japanese subjects, TAK-063 100 mg (n = 5), arithmetic mean
# [10] = non-Japanese subjects, TAK-063 100 mg (n = 6; TAK-063 n = 5), arithmetic mean
# [11] = non-Japanese subjects, TAK-063 300 mg (n = 4), arithmetic mean
# [12] = non-Japanese subjects, TAK-063 300 mg (n = 6; TAK-063 n = 4), arithmetic mean
# [13] = non-Japanese subjects, TAK-063 1000 mg (n = 6), arithmetic mean
smiles,measurement,setting,value
COc1cn(-c2ccc(-n3cccn3)cc2F)nc(-c2ccnn2-c2ccccc2)c1=O [TAK-063],T 1/2,"[1]; fasting, all subjects, TAK-063 300 mg (n = 8), arithmetic mean (% CV)",20.2 (26)^d h
same,C max,"[1]; fasting, all subjects, TAK-063 300 mg (n = 11), arithmetic mean (% CV)",100.3 (18) ng/mL
same,T max,"[1]; fasting, all subjects, TAK-063 300 mg (n = 11), median (minimum, maximum)","4.0 (1.9, 8.0) h"
same,CL/F (oral clearance),[1]; [3],185.9 (48)^d L/h
same,Vz/F (volume of distribution),[1]; [3],5570.7 (57)^d L
same,AUC(0-inf),[1]; [4],5788.1 (81) ng·h/mL
same,C max,[1]; [4],245.8 (34) ng/mL
same,CL/F (oral clearance),[1]; [4],232.0 (42) L/h
same,T 1/2,[1]; [4],14.6 (43) h
same,Vz/F (volume of distribution),[1]; [4],5277.2 (81) L
same,T max,"[1]; fasting, all subjects, TAK-063 1000 mg (n = 11), median (minimum, maximum)","4.0 (2.0, 12.0) h"
same,C max,[1]; [5],8.2 ng/mL
same,CL/F,[1]; [5],15.2 L/h
same,Vz/F,[1]; [5],521.6 L
same,T max,"[1]; non-Japanese subjects, TAK-063 3 mg (n = 6), median",5.0 h
same,AUC(0-inf),[1]; [6],240.4 ng·h/mL
same,T 1/2,[1]; [6],24.2 h
same,AUC(0-inf),[1]; [7],507.9 ng·h/mL
same,C max,[1]; [7],23.8 ng/mL
same,CL/F,[1]; [7],21.2 L/h
same,T 1/2,[1]; [7],21.3 h
same,Vz/F,[1]; [7],627.3 L
same,T max,"[1]; non-Japanese subjects, TAK-063 10 mg (n = 6), median",5.0 h
same,AUC(0-inf),[1]; [8],983.9 ng·h/mL
same,C max,[1]; [8],39.5 ng/mL
same,CL/F,[1]; [8],31.4 L/h
same,T 1/2,[1]; [8],22.6 h
same,Vz/F,[1]; [8],1009.2 L
same,T max,"[1]; non-Japanese subjects, TAK-063 30 mg (n = 6), median",5.0 h
same,AUC(0-inf),[1]; [9],1364.9 ng·h/mL
same,T 1/2,[1]; [9],27.8 h
same,C max,"[1]; non-Japanese subjects, TAK-063 100 mg (n = 6), arithmetic mean",72.7 ng/mL
same,T max,"[1]; non-Japanese subjects, TAK-063 100 mg (n = 6), median",3.5 h
same,CL/F,[1]; [10],84.0 L/h
same,Vz/F,[1]; [10],3213.2 L
same,AUC(0-inf),[1]; [11],2165.7 ng·h/mL
same,T 1/2,[1]; [11],20.0 h
same,C max,"[1]; non-Japanese subjects, TAK-063 300 mg (n = 6), arithmetic mean",102.1 ng/mL
same,T max,"[1]; non-Japanese subjects, TAK-063 300 mg (n = 6), median",3.5 h
same,CL/F,[1]; [12],159.0 L/h
same,Vz/F,[1]; [12],4731.5 L
same,AUC(0-inf),[1]; [13],6502.0 ng·h/mL
same,C max,[1]; [13],230.7 ng/mL
same,CL/F,[1]; [13],230.6 L/h
same,T 1/2,[1]; [13],17.0 h
same,Vz/F,[1]; [13],6380.3 L
same,T max,"[1]; non-Japanese subjects, TAK-063 1000 mg (n = 6), median",4.0 h
same,CLr (renal clearance),"[1]; urine, Japanese subjects, TAK-063 30 mg (n = 5), arithmetic mean",4.0 mL/h
same,CLr (renal clearance),"[1]; urine, Japanese subjects, TAK-063 100 mg (n = 5), arithmetic mean",7.9 mL/h
same,CLr (renal clearance),"[1]; urine, Japanese subjects, TAK-063 300 mg (n = 5), arithmetic mean",5.9 mL/h
same,CLr (renal clearance),"[1]; urine, Japanese subjects, TAK-063 1000 mg (n = 5), arithmetic mean",6.8 mL/h
same,Renal elimination,"[1]; urine, fasting",negligible
same,CLr (renal clearance),"[1]; urine, fasting, all subjects, TAK-063 30 mg (n = 11), arithmetic mean (% CV)",2.4 (123) mL/h
same,CLr (renal clearance),"[1]; urine, fasting, all subjects, TAK-063 100 mg (n = 11), arithmetic mean (% CV)",5.9 (78) mL/h
same,CLr (renal clearance),"[1]; urine, fasting, all subjects, TAK-063 300 mg (n = 11), arithmetic mean (% CV)",6.1 (63) mL/h
same,CLr (renal clearance),"[1]; urine, fasting, all subjects, TAK-063 1000 mg (n = 11), arithmetic mean (% CV)",6.8 (56) mL/h
same,CLr,"[1]; urine, non-Japanese subjects, TAK-063 30 mg (n = 6), arithmetic mean (% CV)",1.1 (179) mL/h
same,CLr,"[1]; urine, non-Japanese subjects, TAK-063 100 mg (n = 6), arithmetic mean (% CV)",4.2 (84) mL/h
same,CLr,"[1]; urine, non-Japanese subjects, TAK-063 300 mg (n = 6), arithmetic mean (% CV)",6.2 (63) mL/h
same,CLr,"[1]; urine, non-Japanese subjects, TAK-063 1000 mg (n = 6), arithmetic mean (% CV)",6.8 (61) mL/h
same,Median T max,[2]; fed (standard meal),6 h
same,"Oral bioavailability, fed relative to fasting",[2]; standard meal,approximately 2 fold
